This passage reports inhibition results from publication PMC4552634, “A New Set of Chemical Starting Points with Plasmodium falciparum Transmission-Blocking Potential for Antimalarial Drug Discovery” (PLoS ONE, 2015).

The subject of the assay is P. falciparum stage V gametocytes. Description: microbe, parasite or virus in culture. Further details: BacTiter-Glo ATP luminescence viability of purified stage V gametocytes in 384-well plates, per cent inhibition versus DMSO.
Where [1] appears, read: Plasmodium falciparum, 48 h, read-out: % Inhibition.

Read-outs that look alike come from different tables or passages of the source.

On to `Cc1cc(NN=Cc2ccc(F)cc2)c2cc(F)ccc2n1` [TCMDC-142172], for which the inhibition at 5 µM under setting [1] is -47.2%.

As to `Cc1cc(NN=Cc2cccc(F)c2)c2cc(F)ccc2n1` [TCMDC-142173], under setting [1], the inhibition at 5 µM is -60.6%.

In the case of `Cc1cc(NN=Cc2cccc(F)c2)c2ccc(F)cc2n1` [TCMDC-142174], under setting [1], the inhibition at 5 µM is -36.6%.

As for `Cc1cc(NN=Cc2ccccc2)c2cc(F)ccc2n1` [TCMDC-142175], under setting [1], the inhibition at 5 µM was -16.9%.

On to `Cc1cc(NN=CC=Cc2ccccc2)c2ccc(F)cc2n1` [TCMDC-142176], for which, under setting [1], the inhibition at 5 µM is -23.9%.

For `Cc1cc(NN=CC=Cc2ccccc2)c2cc(F)ccc2n1` [TCMDC-142177], under setting [1], the inhibition at 5 µM is -42.3%.

As for `N=C(N)c1ccc(/C=C/c2ccc(C(=N)N)cc2O)cc1` [TCMDC-142178], under setting [1], the inhibition at 5 µM was determined as 1.54%.

Regarding `CC1(C)N=C(N)N=C(N)N1c1ccc2ccccc2c1` [TCMDC-142179], the inhibition at 5 µM under setting [1] was -17.5%.

In the case of `CC1(C)N=C(N)N=C(N)N1c1ccc(Cl)c(Cl)c1` [TCMDC-142180], under setting [1], the inhibition at 5 µM worked out at 61.6%.

For `COc1cccc2c(NN=Cc3ccccc3F)ccnc12` [TCMDC-142181], the inhibition at 5 µM under setting [1] was -26%.

Consider `CCCCCC(C)C(C)c1cc(O)c2c3c(c(=O)oc2c1)CN(Cc1ccccc1)CC3` (stereo not drawn) [TCMDC-142182], for which the inhibition at 5 µM under setting [1] was determined as 75.7%.

Turning to `COc1cccc(C=NNc2cc(C)nc3ccccc23)c1` [TCMDC-142183], under setting [1], the inhibition at 5 µM is -15.9%.

Consider `COc1ccc(C=NNc2cc(C)nc3ccccc23)cc1OC` [TCMDC-142184], for which the inhibition at 5 µM under setting [1] is -5.19%.

`COc1ccc(C=NNc2cc(C)nc3ccccc23)c2ccccc12` [TCMDC-142185]: the inhibition at 5 µM under setting [1] worked out at 93.9%.

Take `CCn1c2ccccc2c2cc(C=NNc3cc(C)nc4ccccc34)ccc21` [TCMDC-142186]: the inhibition at 5 µM under setting [1] stood at 85.3%.

For `CCOc1ccc2c(NN=Cc3ccccn3)cc(C)nc2c1` [TCMDC-142187], the inhibition at 5 µM under setting [1] was determined as 20.9%.

`CCCCCC(C)C(C)c1cc(O)c2c(c1)OC(C)(C)c1cnccc1-2` (stereo not drawn) [TCMDC-142188]: the inhibition at 5 µM (Plasmodium falciparum, 48 h; read-out: % Inhibition) is -17.5%.

Regarding `N=C(N)c1cccc(OCCCOc2cccc(NC(=O)Nc3ccc([N+](=O)[O-])cc3)c2)c1` [TCMDC-142189], the inhibition at 5 µM under setting [1] was 24.9%.

With `CCNc1c2ccc(Cl)cc2nc2ccc(OC)cc12` [TCMDC-142190], under setting [1], the inhibition at 5 µM was -21.5%.

Consider `CCCCCCCCNc1c2ccc(Cl)cc2nc2ccc(OC)cc12` [TCMDC-142191], for which the inhibition at 5 µM under setting [1] came out at 0.773%.

Regarding `CCOc1ccc2c(NN=Cc3cccc(Cl)c3)cc(C)nc2c1` [TCMDC-142192], the inhibition at 5 µM under setting [1] was -2.16%.

With `CCOc1ccc2c(NN=Cc3ccccc3F)cc(C)nc2c1` [TCMDC-142193], the inhibition at 5 µM under setting [1] turned out to be 98.2%.

On to `CCOc1ccc2c(NN=Cc3cccc(F)c3)cc(C)nc2c1` [TCMDC-142194], for which, under setting [1], the inhibition at 5 µM is -6.63%.

With `CCOc1ccc2c(N/N=C/c3cccc([N+](=O)[O-])c3)cc(C)nc2c1` [TCMDC-142195], under setting [1], the inhibition at 5 µM amounted to 115%.

As to `COc1ccc(C=NNc2cc(C)nc3ccccc23)c(OC)c1` [TCMDC-142196], under setting [1], the inhibition at 5 µM came out at 98.4%.

Turning to `COc1cccc(C=NNc2cc(C)nc3c(OC)cccc23)c1` [TCMDC-142197], the inhibition at 5 µM under setting [1] worked out at 92.7%.

For the molecule `COc1cc(OC)c(OC)cc1C=NNc1cc(C)nc2ccccc12` [TCMDC-142198], the inhibition at 5 µM under setting [1] was 100%.

On to `COc1ccc2nc(C)cc(NN=Cc3cc(OC)c(OC)cc3OC)c2c1` [TCMDC-142199], for which the inhibition at 5 µM under setting [1] was -26%.

Regarding `COc1cc(C=NNc2cc(C)nc3c(OC)cccc23)cc(OC)c1OC` [TCMDC-142200], under setting [1], the inhibition at 5 µM turned out to be 84.3%.

Consider `CCOc1ccc2c(NN=Cc3ccc(F)cc3)cc(C)nc2c1` [TCMDC-142201], for which the inhibition at 5 µM under setting [1] was 105%.

In the case of `O=[N+]([O-])c1ccccc1C=NNc1c2c(nc3ccccc13)CCCC2` [TCMDC-142202], the inhibition at 5 µM under setting [1] was -53.6%.

As for `CCOc1ccc2c(NN=Cc3ccccc3OC)cc(C)nc2c1` [TCMDC-142203], the inhibition at 5 µM under setting [1] was 87.4%.

Regarding `CCOc1ccc2c(NN=Cc3cccc(OC)c3)cc(C)nc2c1` [TCMDC-142204], the inhibition at 5 µM under setting [1] is 80.8%.

On to `CCOc1ccc2c(NN=Cc3cccc(OC)c3OC)cc(C)nc2c1` [TCMDC-142205], for which, under setting [1], the inhibition at 5 µM was determined as 40.8%.

Take `CCOc1ccc2c(NN=Cc3ccc(OC)c(OC)c3)cc(C)nc2c1` [TCMDC-142206]: the inhibition at 5 µM under setting [1] was 95.7%.

`CCOc1ccc2c(NN=Cc3cc(OC)c(OC)cc3OC)cc(C)nc2c1` [TCMDC-142207]: the inhibition at 5 µM under setting [1] turned out to be 101%.

Take `CCOc1ccc2c(NN=Cc3cc(OC)c(OC)c(OC)c3)cc(C)nc2c1` [TCMDC-142208]: the inhibition at 5 µM under setting [1] was determined as 101%.

As to `CCOc1ccc2c(NN=Cc3c4ccccc4cc4ccccc34)cc(C)nc2c1` [TCMDC-142209], the inhibition at 5 µM under setting [1] amounted to 106%.

Take `CC(C)(C)CC(C)(C)c1ccc(O)c(C(=O)Nc2cccc([N+](=O)[O-])c2)c1` [TCMDC-142210]: the inhibition at 5 µM under setting [1] came out at 8.52%.

For the molecule `CC(C)(C)CC(C)(C)c1ccc(O)c(C(=O)Nc2ccc([N+](=O)[O-])cc2)c1` [TCMDC-142211], under setting [1], the inhibition at 5 µM is -13%.

On to `CN(C)c1ccc(C=Cc2ccc3ccccc3n2)c(Cl)c1` [TCMDC-142212], for which, under setting [1], the inhibition at 5 µM is 36.3%.

Take `Cc1ccc2c(c1[N+](=O)[O-])N=NCC2Oc1ccccc1` (stereo not drawn) [TCMDC-142213]: under setting [1], the inhibition at 5 µM worked out at 38.1%.

Take `CC(C)(C)c1cc(Cl)cc(C(=O)Nc2cc([N+](=O)[O-])ccc2Cl)c1O` [TCMDC-142214]: under setting [1], the inhibition at 5 µM amounted to 36.2%.

Regarding `COc1ccc(C=NNc2ccnc3ccccc23)c2ccccc12` [TCMDC-142215], under setting [1], the inhibition at 5 µM is -96.9%.

Take `COc1ccc(C=NNc2cc(C)nc3c(C)cccc23)c2ccccc12` [TCMDC-142216]: the inhibition at 5 µM under setting [1] was -26.1%.

For `COc1ccc(C=NNc2cc(C)nc3ccc(C)cc23)c2ccccc12` [TCMDC-142217], the inhibition at 5 µM under setting [1] was 103%.

Turning to `Oc1ccc(Br)cc1-c1nc2ccc(Cl)cc2nc1-c1cc(Br)ccc1O` [TCMDC-142219], the inhibition at 5 µM under setting [1] stood at 82.4%.

Turning to `Cc1cc2nc(-c3cc(Br)ccc3O)c(-c3cc(Br)ccc3O)nc2cc1C` [TCMDC-142220], the inhibition at 5 µM under setting [1] was found to be 24.2%.

`CC(C)NCC(O)COc1ccc(Cc2ccc(OCC(O)CNC(C)C)cc2)cc1` (stereo not drawn) [TCMDC-142221]: the inhibition at 5 µM under setting [1] was 77%.

For `CCN(CC)CC(O)c1cc(-c2ccc(OC)cc2)nc2cc(Cl)ccc12` (stereo not drawn) [TCMDC-142222], under setting [1], the inhibition at 5 µM was -13%.

As to `CCCCCCCCNCC(O)c1cc(-c2ccc(Cl)cc2)nc2cc(C)ccc12` (stereo not drawn) [TCMDC-142223], under setting [1], the inhibition at 5 µM is -7.88%.

As for `COc1ccc(OC)c2c1CC1NCC2c2c(OC)ccc(OC)c21` (stereo not drawn) [TCMDC-142224], the inhibition at 5 µM under setting [1] was found to be 2.64%.

Take `CCCCCCCCNCC(O)c1ccc(Cl)c(Cl)c1` (stereo not drawn) [TCMDC-142225]: under setting [1], the inhibition at 5 µM was 17.7%.

Take `CCN(Cc1ccccc1)CC(O)c1ccc(Cl)c(Cl)c1` (stereo not drawn) [TCMDC-142226]: the inhibition at 5 µM under setting [1] came to 14.8%.

As for `CCCCNC(c1ccc(Cl)cc1)C(O)c1ccc(Cl)cc1` (stereo not drawn) [TCMDC-142227], under setting [1], the inhibition at 5 µM was -29.7%.

Take `OC(c1cc(C(F)(F)F)nc2c(F)cccc12)C1CCCCN1` (stereo not drawn) [TCMDC-142228]: the inhibition at 5 µM under setting [1] was found to be 37.8%.

Consider `CCN(CC)CC(O)c1cc(-c2ccc(C)cc2)nc2c(C)cc(C)cc12` (stereo not drawn) [TCMDC-142229], for which the inhibition at 5 µM under setting [1] is -117%.
